Assay results: patent US5834259A, “Process and composition for preparing D-aspartic acid” (Monsanto Company, priority 1996, dated 1998)

What was measured:
Assay type in all cases: biochemical, E. coli K12
[1] = target: T1, L-aspartate-α-decarboxylase (Escherichia coli, UniProt P0A790); assay: Re-use of cells on fresh 0.5M D/L-aspartate (Example 5); settings: re-used cells, 37° C.
T1 construct: expressed in transfected cells; host or cells: E. coli W3110 transformed with pIF309 = strain NS3291 (ATCC 98675), whole cells
T1 sequence (P0A790 25-126): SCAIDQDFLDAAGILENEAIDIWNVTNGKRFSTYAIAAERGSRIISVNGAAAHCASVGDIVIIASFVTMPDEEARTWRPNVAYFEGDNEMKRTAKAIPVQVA
T1 sequence (P0A790 1-24): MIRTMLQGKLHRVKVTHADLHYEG
Description: Cells that had already been used in Example 3 were put in fresh substrate to determine if they were still active.
Fresh D/L-aspartate substrate was prepared as previously described in Example 3. The cells from Example 3 were resuspended in deionized H2 O and made up to 100 ml. The pH of the substrate (900 ml, 0.5M D/L-Asp) was adjusted to 7.0 with NaOH. After placing in the 2 L fermentor, the cells (100 ml) were added. There was no pH control and deionized H2 O was used for substrate. Samples were removed over time, centrifuged and the supernatant fluid diluted appropriately for both D- and L-aspartic acid determination. Temperature was set at 37° C.

[2] = target: T1, L-aspartate-α-decarboxylase; assay: Bioconversion of 0.5M D/L-aspartate with NS3291 cells (Example 3)
Description: 66.5 g (0.5M) D/L-aspartate (Sigma, A-9006) was weighed into a 2 L beaker and the pH adjusted to 7.0 with 10N NaOH. The volume was brought to 963 ml with deionized H2 O. 137 ml of cells (NS 3291, described above) were added at a packed cell volume ("PCV") of 7.31 g/10 ml cells resulting in a final volume of 1.1 L. Samples (approximately 1 ml each) were removed over time, centrifuged and the supernatant fluid was analyzed by HPLC for D- and L-aspartic acid content.
In all of the Examples herein, D- and L-aspartic acid isomers were quantified by HPLC using the following precolumn derivatization method. Aspartic acid was converted into diastereomers using ortho-phthalaldehyde and N-acetyl-L-cysteine. Separation of the diastereomers was achieved on a Supelcosil™ LC-18DB, 3μ, 150×4.6 mm column using a mobile phase of A: 20% methanol/80% triethylamine phosphate and B: methanol, and a step gradient as follows: […]
Retention times were 4.19 minutes and 4.54 minutes for D-aspartic acid and L-aspartic acid, respectively.
Samples from bioconversions were centrifuged to remove cells in a microcentrifuge and the supernatant fluid diluted appropriately such that the value determined from the HPLC fell within the linear region of the standard curve. These dilutions were usually between 1:100 and 1:200, made with deionized water.

[3] = target: T1, L-aspartate-α-decarboxylase; assay: Temperature study, 45° C. (Example 9); settings: 1.0M, 100 g/l cells
Description: (§1) 133.1 g (1 mol) of D/L-aspartic acid was dissolved in deionized H2 O and the pH was adjusted to 7.0 with 10N NaOH, approximately 100 ml. Cells, freshly thawed from -80° C., were added to achieve a final concentration of 100 g/l. Three 2 L fermentors were each charged with 963 ml of substrate solution and 137 ml of cells and then heated to 37° C. and 45° C. while mixing at 300 rpm or heated to 50° C. while mixing at 450 rpm. Samples, approximately 1 ml, were removed over time and pH adjusted to 7.0 with either NaOH or HCl. After centrifugation to remove cells, the supernatant fluid was analyzed for both D- and L-aspartic acid.

[4] = target: T1, L-aspartate-α-decarboxylase; assay: Temperature study, 37° C. (Example 9); settings: for concentration in supernatant fluid / percent remaining: 1.0M, 100 g/l cells
Description: as §1

N[C@@H](CC(=O)O)C(=O)O [L-Asp, L-aspartic acid]
concentration in supernatant fluid ([1]; 0.0000 hr): 24.700 mg/mL
concentration in supernatant fluid ([1]; 6.2500 hr): 17.130 mg/mL
percent remaining ([1]; 6.2500 hr): 69.352%
concentration in supernatant fluid ([1]; 15.250 hr): 15.620 mg/mL
percent remaining ([1]; 15.250 hr): 63.239%
concentration in supernatant fluid ([1]; 25.750 hr): 10.870 mg/mL
percent remaining ([1]; 25.750 hr): 44.008%
concentration in supernatant fluid ([1]; 28.000 hr): 9.5300 mg/mL
percent remaining ([1]; 28.000 hr): 38.583%
concentration in supernatant fluid ([1]; 44.250 hr): 4.4200 mg/mL
percent remaining ([1]; 44.250 hr): 17.895%
concentration in supernatant fluid ([1]; 63.500 hr): 0.98 mg/mL
percent remaining ([1]; 63.500 hr): 3.9676%
concentration in supernatant fluid ([1]; 65.000 hr): 0.95 mg/mL
percent remaining ([1]; 65.000 hr): 3.8462%
percent remaining ([2]; 5.5000 hr): 41.739%
percent remaining ([2]; 24.500 hr): 0.5888%
percent remaining ([2]; 26.500 hr): 0.4157%
percent remaining ([2]; 32.500 hr): 0.2078%
percent remaining ([2]; 47.500 hr): 0.1039%
percent remaining ([2]; 52.000 hr): 0.06928%
percent remaining ([2]; 68.000 hr): 1.4894%
concentration in supernatant fluid ([3]; 0.000 hr): 54.410 mg/mL
percent remaining ([3]; 2.5000 hr): 92.079%
concentration in supernatant fluid ([3]; 4.0000 hr): 47.110 mg/mL
percent remaining ([3]; 4.0000 hr): 86.583%
concentration in supernatant fluid ([3]; 6.0000 hr): 43.130 mg/mL
percent remaining ([3]; 6.0000 hr): 79.269%
concentration in supernatant fluid ([3]; 8.0000 hr): 39.310 mg/mL
percent remaining ([3]; 8.0000 hr): 72.248%
concentration in supernatant fluid ([3]; 10.000 hr): 36.800 mg/mL
percent remaining ([3]; 10.000 hr): 67.635%
concentration in supernatant fluid ([3]; 12.000 hr): 34.540 mg/mL
percent remaining ([3]; 12.000 hr): 63.481%
concentration in supernatant fluid ([3]; 20.000 hr): 24.690 mg/mL
percent remaining ([3]; 20.000 hr): 45.378%
concentration in supernatant fluid ([3]; 24.000 hr): 23.210 mg/mL
percent remaining ([3]; 24.000 hr): 42.658%
concentration in supernatant fluid ([3]; 29.000 hr): 21.700 mg/mL
percent remaining ([3]; 29.000 hr): 39.882%
concentration in supernatant fluid ([3]; 34.000 hr): 19.310 mg/mL
percent remaining ([3]; 34.000 hr): 35.490%
concentration in supernatant fluid ([3]; 44.000 hr): 15.800 mg/mL
percent remaining ([3]; 44.000 hr): 29.039%
concentration in supernatant fluid ([3]; 48.000 hr): 16.700 mg/mL
percent remaining ([3]; 48.000 hr): 30.822%
concentration in supernatant fluid ([3]; 68.000 hr): 16.050 mg/mL
percent remaining ([3]; 68.000 hr): 29.498%
concentration in supernatant fluid ([3]; 92.000 hr): 13.370 mg/mL
percent remaining ([3]; 92.000 hr): 24.573%
concentration in supernatant fluid ([4]; 0.0000 hr): 53.700 mg/mL
concentration in supernatant fluid ([4]; 2.5000 hr): 48.940 mg/mL
percent remaining ([4]; 2.5000 hr): 91.136%
concentration in supernatant fluid ([4]; 4.0000 hr): 47.600 mg/mL
percent remaining ([4]; 4.0000 hr): 88.641%
concentration in supernatant fluid ([4]; 6.0000 hr): 46.170 mg/mL
percent remaining ([4]; 6.0000 hr): 85.978%
concentration in supernatant fluid ([4]; 8.0000 hr): 44.810 mg/mL
percent remaining ([4]; 8.0000 hr): 83.445%
concentration in supernatant fluid ([4]; 10.000 hr): 42.120 mg/mL
percent remaining ([4]; 10.000 hr): 78.436%
concentration in supernatant fluid ([4]; 12.000 hr): 42.120 mg/mL
percent remaining ([4]; 12.000 hr): 78.462%
concentration in supernatant fluid ([4]; 20.000 hr): 35.960 mg/mL
percent remaining ([4]; 20.000 hr): 66.965%
concentration in supernatant fluid ([4]; 24.000 hr): 34.840 mg/mL
percent remaining ([4]; 24.000 hr): 64.879%
concentration in supernatant fluid ([4]; 29.000 hr): 28.040 mg/mL
percent remaining ([4]; 29.000 hr): 54.078%
concentration in supernatant fluid ([4]; 34.000 hr): 28.040 mg/mL
percent remaining ([4]; 34.000 hr): 54.078%
concentration in supernatant fluid ([4]; 44.000 hr): 21.670 mg/mL
percent remaining ([4]; 44.000 hr): 40.354%
concentration in supernatant fluid ([4]; 48.000 hr): 18.440 mg/mL
percent remaining ([4]; 48.000 hr): 34.339%
concentration in supernatant fluid ([4]; 68.000 hr): 5.9700 mg/mL
percent remaining ([4]; 68.000 hr): 11.117%
concentration in supernatant fluid ([4]; 92.000 hr): 0.915 mg/mL
percent remaining ([4]; 92.000 hr): 1.7039%
consumption of the isomer ([4]; by 99.75 hours): almost completely consumed
